Experimental data reported in PMC9386018, “A lymphatic-absorbed multi-targeted kinase inhibitor for myelofibrosis therapy” (Nature Communications, 2022).
“And” between values parts separate entries of the source, which are not always exact repeats. Equal values may be shown once.

Assays:
[1] = system: pERK1/2 (pT202/pY204) in splenocytes; experiment: MPL^W515L MF mouse model: pERK1/2 in splenocytes by flow cytometry; type: in vivo; conditions: MPL^W515L mice, oral 400 mg kg^−1 daily, 28 d
Protocol: The human megakaryoblastic cell line, SET-2 (ATCC), was maintained in RPMI 1640 supplemented with 20% FBS and incubated for 16 h at 10^6 cells mL^−1 with LP-182 or vehicle (DMSO; dimethyl sulfoxide), then washed in ice-cold PBS, and collected for flow cytometry analysis. Single-cell suspensions of mouse spleen were prepared from MPL^W515L MF mice (below) in RPMI 1640 supplemented with 5% FCS. Red blood cells were lysed by ammonium chloride-mediated red cell lysis (RCL) buffer and passed through a nylon mesh, and then cells were counted. For intracellular phospho-protein staining, SET-2 or spleen cells were fixed and then permeabilized using BD Phospho-flow fixation buffer and Perm-Buffer III (BD biosciences) according to the manufacturer’s protocol. Intracellular phospho-protein staining was performed using fluorochrome-conjugated antibodies, pAKT (pS473)-Alexa Fluor 647 (MB89-61) or pERK1/2 (pT202/pY204)-Alexa Fluor 647 (20 A). […] Flow cytometry was performed on a FACS Fortessa (Becton, Dickinson and Co.) using FACSDiVa software, and data analyzed using FlowJo software (Tree Star). […]
Generation of the MPL^W515L mutant MF mouse model was similar to previously described methods. […] Development of MF was evaluated by spleen volumes using MRI beginning ~14 d following bone marrow transplantation (BMT) as outlined below, continuing weekly until end of the study. […]

[2] = molecular target: 321 human protein kinases (Homo sapiens, UniProt P42356); experiment: Single-point broad panel kinome screening (SelectScreen Z'-LYTE and Adapta); type: biochemical; conditions: PI4KA (PI4K alpha); […] LP-182; [ATP] 10 μM
Protocol: (§1) Quantitation of kinase inhibition was carried out by Life Technologies (Madison, WI) using the SelectScreen profiling platforms Z’-LYTE^TM and Adapta^TM. Single-point broad panel kinome screening was performed at 2.5 µM LP-182 against all kinases within the Z’-LYTE^TM and Adapta^TM assays (321 kinase isoforms, holoenzymes, or mutant variants). The average percent kinase inhibition from replicate data was ranked low to high, converted to a compatible identifier format, then input into Coral Human Kinome Visualization software for presentation analysis. […] Scaling of evolutionary distance for PI kinases is only relative and is based on literature analysis[62],[63]. Average percent kinome inhibition values from replicate data are supplied in Source Data file. […]. Corrected data was normalized to vehicle treated control values, and dose response percent kinase activity was analyzed by non-linear regression for determination of IC50 values.

[3] = molecular target: 321 human protein kinases (Homo sapiens, UniProt P52564); experiment: as above; type: biochemical; conditions: MAP2K6 (MKK6); […] LP-182; [ATP] 100 μM
Protocol: as §1

[4] = molecular target: 321 human protein kinases (Homo sapiens, UniProt Q99755); experiment: as above; type: biochemical; conditions: PIP5K1A; […] LP-182; [ATP] 10 μM
Protocol: as §1

[5] = molecular target: 321 human protein kinases (Homo sapiens, UniProt Q16539); experiment: as above; type: biochemical; conditions: MAPK14 (p38 alpha); […] LP-182; [ATP] 100 μM
Protocol: as §1

[6] = molecular target: MEK1 (Homo sapiens, UniProt Q02750); experiment: Target kinase 10-point inhibition assay, MEK1; type: biochemical; conditions: replicates
Excerpt: The average percent kinase inhibition from replicate data was ranked low to high, converted to a compatible identifier format, then input into Coral Human Kinome Visualization software for presentation analysis. […] Scaling of evolutionary distance for PI kinases is only relative and is based on literature analysis[62],[63]. Average percent kinome inhibition values from replicate data are supplied in Source Data file. […] Corrected data was normalized to vehicle treated control values, and dose response percent kinase activity was analyzed by non-linear regression for determination of IC50 values.

Chain of MEK1 (Q02750 whole entry): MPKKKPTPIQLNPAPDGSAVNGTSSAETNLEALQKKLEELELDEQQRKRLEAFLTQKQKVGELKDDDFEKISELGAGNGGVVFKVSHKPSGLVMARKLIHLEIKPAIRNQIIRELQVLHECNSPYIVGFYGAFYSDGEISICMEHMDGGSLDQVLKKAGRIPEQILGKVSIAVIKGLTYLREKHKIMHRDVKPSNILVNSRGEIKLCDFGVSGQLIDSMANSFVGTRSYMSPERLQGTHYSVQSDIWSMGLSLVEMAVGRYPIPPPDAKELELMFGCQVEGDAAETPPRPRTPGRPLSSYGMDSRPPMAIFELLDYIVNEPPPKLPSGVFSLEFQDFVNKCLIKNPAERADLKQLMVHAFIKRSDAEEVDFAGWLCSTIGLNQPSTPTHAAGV
Chain of 321 human protein kinases (Homo sapiens, UniProt P52564) (P52564 whole entry): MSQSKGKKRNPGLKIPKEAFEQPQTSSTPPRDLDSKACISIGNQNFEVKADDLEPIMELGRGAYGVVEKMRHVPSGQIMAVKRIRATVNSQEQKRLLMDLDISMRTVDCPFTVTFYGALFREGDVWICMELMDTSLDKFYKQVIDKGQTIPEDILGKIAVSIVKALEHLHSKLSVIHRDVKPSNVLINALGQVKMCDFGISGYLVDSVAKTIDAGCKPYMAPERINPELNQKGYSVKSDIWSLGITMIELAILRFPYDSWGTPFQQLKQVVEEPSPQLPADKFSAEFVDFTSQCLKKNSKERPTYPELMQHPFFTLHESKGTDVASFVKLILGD
Chain of 321 human protein kinases (Homo sapiens, UniProt Q99755) (Q99755 whole entry): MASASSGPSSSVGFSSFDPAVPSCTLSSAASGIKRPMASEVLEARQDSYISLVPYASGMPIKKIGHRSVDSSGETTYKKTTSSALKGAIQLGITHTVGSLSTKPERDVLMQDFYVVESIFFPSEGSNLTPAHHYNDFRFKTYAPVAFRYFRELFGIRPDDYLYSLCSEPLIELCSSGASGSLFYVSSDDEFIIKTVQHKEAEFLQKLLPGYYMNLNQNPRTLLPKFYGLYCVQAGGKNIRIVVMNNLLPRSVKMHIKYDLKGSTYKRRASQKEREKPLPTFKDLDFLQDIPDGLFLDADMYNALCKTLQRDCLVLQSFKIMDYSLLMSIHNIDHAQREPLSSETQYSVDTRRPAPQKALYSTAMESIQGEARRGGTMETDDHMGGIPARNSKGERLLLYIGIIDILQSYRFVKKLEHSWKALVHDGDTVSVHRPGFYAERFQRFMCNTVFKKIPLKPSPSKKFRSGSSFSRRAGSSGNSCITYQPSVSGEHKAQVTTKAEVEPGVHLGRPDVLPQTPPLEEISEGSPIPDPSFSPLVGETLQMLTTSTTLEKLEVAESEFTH
Chain of 321 human protein kinases (Homo sapiens, UniProt P42356) (P42356 whole entry, canonical isoform): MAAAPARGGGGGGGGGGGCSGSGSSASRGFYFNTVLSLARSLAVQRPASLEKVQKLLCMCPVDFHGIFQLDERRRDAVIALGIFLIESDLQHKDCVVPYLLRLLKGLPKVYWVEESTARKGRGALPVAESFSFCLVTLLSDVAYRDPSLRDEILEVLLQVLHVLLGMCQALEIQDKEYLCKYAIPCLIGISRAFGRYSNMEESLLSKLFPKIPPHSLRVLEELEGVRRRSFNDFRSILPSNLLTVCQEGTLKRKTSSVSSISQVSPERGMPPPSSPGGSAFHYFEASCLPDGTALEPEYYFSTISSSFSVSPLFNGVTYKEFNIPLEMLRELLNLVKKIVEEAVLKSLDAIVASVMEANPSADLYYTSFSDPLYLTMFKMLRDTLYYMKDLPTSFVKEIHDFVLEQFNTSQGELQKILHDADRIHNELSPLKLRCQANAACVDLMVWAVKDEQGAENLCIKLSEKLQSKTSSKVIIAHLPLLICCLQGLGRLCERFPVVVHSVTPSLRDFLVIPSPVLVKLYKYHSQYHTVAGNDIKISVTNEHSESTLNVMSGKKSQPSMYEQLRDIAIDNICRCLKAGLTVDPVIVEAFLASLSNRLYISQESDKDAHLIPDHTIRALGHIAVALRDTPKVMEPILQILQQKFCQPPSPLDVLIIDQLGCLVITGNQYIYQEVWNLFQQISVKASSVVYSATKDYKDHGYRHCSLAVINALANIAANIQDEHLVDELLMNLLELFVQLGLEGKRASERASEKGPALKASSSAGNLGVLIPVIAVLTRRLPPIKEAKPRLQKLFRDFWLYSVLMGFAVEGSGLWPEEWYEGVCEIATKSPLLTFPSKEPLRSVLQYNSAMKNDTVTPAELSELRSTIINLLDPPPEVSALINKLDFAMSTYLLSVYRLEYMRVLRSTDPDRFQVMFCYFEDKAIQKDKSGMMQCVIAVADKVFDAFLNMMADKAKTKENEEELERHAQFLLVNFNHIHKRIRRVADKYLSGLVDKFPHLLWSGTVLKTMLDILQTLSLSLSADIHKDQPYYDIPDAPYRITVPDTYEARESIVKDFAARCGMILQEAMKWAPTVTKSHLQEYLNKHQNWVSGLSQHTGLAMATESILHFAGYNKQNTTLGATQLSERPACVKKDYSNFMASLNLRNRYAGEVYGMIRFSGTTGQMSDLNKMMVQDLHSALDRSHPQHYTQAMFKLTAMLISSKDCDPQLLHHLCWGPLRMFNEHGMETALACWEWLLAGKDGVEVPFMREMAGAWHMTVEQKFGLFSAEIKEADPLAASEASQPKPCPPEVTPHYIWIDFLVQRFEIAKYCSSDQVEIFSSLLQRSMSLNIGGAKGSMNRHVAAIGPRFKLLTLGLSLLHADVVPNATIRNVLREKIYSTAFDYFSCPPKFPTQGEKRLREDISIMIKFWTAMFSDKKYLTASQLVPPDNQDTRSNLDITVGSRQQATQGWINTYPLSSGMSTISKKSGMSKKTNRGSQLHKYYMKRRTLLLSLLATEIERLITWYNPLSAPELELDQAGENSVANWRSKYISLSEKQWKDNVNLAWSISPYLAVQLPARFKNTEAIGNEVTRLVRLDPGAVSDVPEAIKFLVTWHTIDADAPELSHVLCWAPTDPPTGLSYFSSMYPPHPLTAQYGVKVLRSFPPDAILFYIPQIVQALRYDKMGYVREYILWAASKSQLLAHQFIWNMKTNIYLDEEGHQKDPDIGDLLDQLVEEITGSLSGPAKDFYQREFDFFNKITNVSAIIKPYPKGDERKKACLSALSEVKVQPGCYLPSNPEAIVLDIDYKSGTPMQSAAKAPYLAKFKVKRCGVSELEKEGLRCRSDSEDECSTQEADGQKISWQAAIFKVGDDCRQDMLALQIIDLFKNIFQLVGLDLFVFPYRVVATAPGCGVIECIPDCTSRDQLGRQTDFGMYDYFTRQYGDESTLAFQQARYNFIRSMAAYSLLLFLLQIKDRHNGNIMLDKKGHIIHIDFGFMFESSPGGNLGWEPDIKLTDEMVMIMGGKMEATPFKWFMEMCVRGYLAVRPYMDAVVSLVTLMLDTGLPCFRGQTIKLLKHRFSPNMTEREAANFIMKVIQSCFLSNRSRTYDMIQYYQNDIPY
Chain of 321 human protein kinases (Homo sapiens, UniProt Q16539) (Q16539 whole entry): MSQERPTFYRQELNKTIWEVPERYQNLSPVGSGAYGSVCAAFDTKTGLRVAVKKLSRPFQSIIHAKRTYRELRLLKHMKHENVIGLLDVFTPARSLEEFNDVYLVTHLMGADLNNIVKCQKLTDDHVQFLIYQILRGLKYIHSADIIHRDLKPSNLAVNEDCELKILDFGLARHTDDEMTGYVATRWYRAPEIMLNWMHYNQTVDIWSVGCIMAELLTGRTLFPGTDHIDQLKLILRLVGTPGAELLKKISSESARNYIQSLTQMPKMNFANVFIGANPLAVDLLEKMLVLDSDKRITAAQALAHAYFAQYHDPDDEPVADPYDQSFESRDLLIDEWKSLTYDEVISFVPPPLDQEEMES

## O=C(NOCCOCCOCCOCCC(=O)N1CCN(c2cnc3ccc(-c4cnc(Cl)c(NS(=O)(=O)c5ccc(F)cc5)c4)cc3n2)CC1)c1ccc(F)c(F)c1Nc1ccc(I)cc1F [LP-182, N-(2-(2-(2-(3-(4-(7-(6-chloro-5-((4-fluorophenyl)sulfonamido)pyridin-3-yl)quinoxalin-2-yl)piperazin-1-yl)-3-oxopropoxy)ethoxy)ethoxy)ethoxy)-3,4-difluoro-2-((2-fluoro-4-iodophenyl)amino)benzamide]
[1]
  active ERK1/2 level in splenocytes: reduced active AKT and ERK1/2 levels to those comparable to healthy control mice
[2]
  inhibition at […]: 24%
[3]
  inhibition at […]: 16%
[4]
  inhibition at […]: 26%
[5]
  inhibition at […]: 22%
[6]; MEK1, 0.495 nM
  activity at 0.000495 µM: 91%
[6]; MEK1, 0.495 nM, 0.000495 µM
  Kinase Activity (%): 94% and 100% (2×) and 98% (2×) and 87%
[6]; MEK1, 1.52 nM
  activity at 0.00152 µM: 89%
[6]; MEK1, 1.52 nM, 0.00152 µM
  Kinase Activity (%): 94% (2×) and 102% (2×)
[6]; MEK1, 4.57 nM
  activity at 0.00457 µM: 92%
[6]; MEK1, 4.57 nM, 0.00457 µM
  Kinase Activity (%): 77% and 86% and 84% and 81%
[6]; MEK1, 41.2 nM, 0.0412 µM
  Kinase Activity (%): 47% and 49% and 69% and 72% and 79% and 86% and 76% and 73%
[6]; MEK1, 123 nM, 0.123 µM
  Kinase Activity (%): 26% and 22% and 46% and 50% and 53% and 57% and 54% and 49%
[6]; MEK1, 1110 nM, 1.11 µM
  Kinase Activity (%): 0% and 3% (3×) and 8% (2×) and 9% (2×) and 5% and 12%
[6]; MEK1, 3330 nM, 3.33 µM
  Kinase Activity (%): -1% and 1% (2×) and 2% (2×) and 3% (3×) and 4% and 0%
[6]; MEK1, 10000 nM, 10 µM
  Kinase Activity (%): 0% and -2% (2×) and 8% and 9% and 4% and 2% and -1% and 3% (2×)
[6]; MEK1, concentration 0.495 nM
  activity at 0.000495 µM: 90%
[6]; MEK1, concentration 0.495 nM, 0.000495 µM
  Kinase Activity (%): 100% (2×) and 98% (2×)
[6]; MEK1, concentration 1.52 nM
  activity at 0.00152 µM: 99%
[6]; MEK1, concentration 1.52 nM, 0.00152 µM
  Kinase Activity (%): 94% (2×) and 102% (2×)
[6]; MEK1, concentration 4.57 nM
  activity at 0.00457 µM: 95%
[6]; MEK1, concentration 41.2 nM
  activity at 0.0412 µM: 65%
[6]; MEK1, concentration 123 nM
  activity at 0.123 µM: 43%
[6]; MEK1, concentration 370 nM
  activity at […]: 15%
[6]; MEK1, concentration 1110 nM, 1.11 µM
  Kinase Activity (%): 9% (2×) and 3% (3×) and 8% (2×)
[6]; MEK1, concentration 3330 nM, 3.33 µM
  Kinase Activity (%): 2% (2×) and 1% (2×) and 3% (3×)
[6]; MEK1, concentration 10000 nM, 10 µM
  Kinase Activity (%): 3% (2×) and -2% (2×)
